Experimental data taken from the NIST ThermoML archive (doi:10.1016/j.jct.2008.03.013).
Several values for one entry are separate records, joined by “and”; a condition that tells them apart may be missing. Identical values can stand only once.

Tests used:
[1] = refractive index (Na D-line) (dimensionless); details: 298.15 K; 101.33 kPa; Liquid; Standard Abbe refractometry
[2] = 100 kPa, Liquid
[3] = refractive index (Na D-line) (dimensionless); xn = mol fraction of the nth substance listed; details: 298.15 K, 100 kPa, Liquid, Standard Abbe refractometry
[4] = xn = mol fraction of the nth substance listed; details: 100 kPa, Liquid

CCCCn1cc[n+](C)c1.COS(=O)(=O)[O-] [1-butyl-3-methylimidazolium methyl sulfate]
Details	refractive index
[1]	1.47792

[2]
Details	mass density [kg/m3]	viscosity
298.15 K	1213.43	182.3 mPa·s
313.15 K	1203.48	84.8 mPa·s and 84.7 mPa·s
328.15 K	1193.59	45.35 mPa·s

CCCCn1cc[n+](C)c1.COS(=O)(=O)[O-] [1-butyl-3-methylimidazolium methyl sulfate] + CCO
[3]
Details	refractive index
x2 = 0	1.47792
x2 = 0.0651	1.4759
x2 = 0.0922	1.475
x2 = 0.2011	1.4711
x2 = 0.3091	1.46633
x2 = 0.402	1.46114
x2 = 0.491	1.45512
x2 = 0.5788	1.4478
x2 = 0.7142	1.43243
x2 = 0.807	1.41714
x2 = 0.895	1.39734
x2 = 0.9445	1.38212

[4]
Details	mass density, 298.15 K [kg/m3]	mass density, 313.15 K [kg/m3]	mass density, 328.15 K [kg/m3]	viscosity, 298.15 K [mPa·s]	viscosity, 313.15 K [mPa·s]	viscosity, 328.15 K [mPa·s]
x2 = 0	1213.43	1203.48	1193.59	182.3	84.7	45.35
x2 = 0.0651	1205.77	1195.71	1185.73	156.7	74.9	40.76
x2 = 0.0922	1202.49	1192.4	1182.4	131.9	64.1	35.9
x2 = 0.2011	1187.41	1177.24	1167.12	88.6	46.28	27.16
x2 = 0.3091	1169.23	1158.88	1148.61	56.32	31.64	19.89
x2 = 0.402	1150.09	1139.56	1129.14	37.85	22.35	14.41
x2 = 0.491	1127.58	1117.04	1106.55	25.04	15.62	10.53
x2 = 0.5788	1100.78	1089.92	1079.14	16.22	10.58	7.263
x2 = 0.7142	1043.7	1032.43	1021.2	7.427	5.271	4.019
x2 = 0.807	989.09	977.5	965.92	4.349	3.197	2.503
x2 = 0.895	917.29	905.22	893.02	2.465	1.863	1.432
x2 = 0.9445	863.52	851.11	838.48	1.733	1.319	1.033

CCCCn1cc[n+](C)c1.COS(=O)(=O)[O-] [1-butyl-3-methylimidazolium methyl sulfate] + O
[3]
Details	refractive index
x2 = 0	1.47792
x2 = 0.0325	1.47746
x2 = 0.1703	1.47584
x2 = 0.2989	1.47341
x2 = 0.4104	1.47032
x2 = 0.4774	1.46814
x2 = 0.5886	1.463
x2 = 0.6859	1.45603
x2 = 0.7856	1.44395
x2 = 0.8899	1.41842
x2 = 0.9466	1.38937

[4]
Details	mass density, 298.15 K [kg/m3]	mass density, 313.15 K [kg/m3]	mass density, 328.15 K [kg/m3]	viscosity, 298.15 K [mPa·s]	viscosity, 313.15 K [mPa·s]	viscosity, 328.15 K [mPa·s]
x2 = 0	1213.43	1203.48	1193.59	182.3	84.8	45.35
x2 = 0.0325	1212.91	1202.96	1193.03	177	82.8	44.8
x2 = 0.1703	1211.05	1201.02	1190.99	137	68.9	41.09
x2 = 0.2989	1208.33	1198.3	1188.25	95.4	51.5	33.85
x2 = 0.4104	1204.62	1194.57	1184.54	65.5	35.77	23.52
x2 = 0.4774	1201.72	1191.55	1181.33	50.2	27.55	18.25
x2 = 0.5886	1194.68	1184.43	1174.25	31.93	18.4	11.98
x2 = 0.6859	1185.23	1174.8	1164.26	20.28	12.03	7.862
x2 = 0.7856	1168.21	1157.61	1146.83	11.42	7.027	4.738
x2 = 0.8899	1130.52	1120.17	1109.5	5.071	3.296	2.306
x2 = 0.9466	1085.81	1076.83	1067.17	2.597	1.763	1.281

CCO [ethanol]
Details	refractive index
[1]	1.36023

[2]
Details	mass density [kg/m3]	viscosity [mPa·s]
298.15 K	785.46	1.082
313.15 K	772	0.827
328.15 K	758.55	0.641

CCO [ethanol] + CCCCn1cc[n+](C)c1.COS(=O)(=O)[O-]
Details	refractive index
[3], x1 = 1	1.36023

[4], x1 = 1
Details	mass density [kg/m3]	viscosity [mPa·s]
298.15 K	785.46	1.082
313.15 K	772	0.827
328.15 K	758.55	0.641
